In the NIST ThermoML archive (doi:10.1016/j.jct.2013.01.008):
Numbers after ± are expanded uncertainties.

Assays:
[1] = mn = molality of the nth substance listed, in mol/kg; details: 101 kPa, Liquid, m2 = 0; for viscosity: Capillary tube (Ostwald / Ubbelohde) method
[2] = 101 kPa, Liquid; for viscosity: Capillary tube (Ostwald / Ubbelohde) method
[3] = wn = mass fraction of the nth substance listed; details: 101 kPa, Liquid; for mass density: Pycnometric method; for viscosity: Capillary tube (Ostwald / Ubbelohde) method

Work on `O` [water] + C[C@@H](O)[C@H](N)C(=O)O yielded a viscosity ([1]; 298.15 K) of 0.8903 ± 0.0081 mPa·s, a viscosity ([1]; 303.15 K) of 0.7973 ± 0.0074 mPa·s and a viscosity ([1]; 308.15 K) of 0.719 ± 0.0067 mPa·s. For the same molecule, the mass density ([1]; 308.15 K, Pycnometric method) was 994.07 ± 0.36 kg/m3, the viscosity ([1]; 313.15 K) was 0.6526 ± 0.0061 mPa·s and the viscosity ([1]; 318.15 K) was 0.5972 ± 0.0056 mPa·s.

For `O` [water], the viscosity ([2]; 298.15 K) was 0.8903 ± 0.0081 mPa·s, the viscosity ([2]; 303.15 K) was 0.7973 ± 0.0074 mPa·s and the viscosity ([2]; 308.15 K) was 0.719 ± 0.0067 mPa·s. For the same molecule, the mass density ([2]; 308.15 K, Pycnometric method) was 994.07 ± 0.36 kg/m3, the viscosity ([2]; 313.15 K) was 0.6526 ± 0.0061 mPa·s and the viscosity ([2]; 318.15 K) was 0.5972 ± 0.0056 mPa·s.

`O=C[C@H](O)[C@@H](O)[C@H](O)[C@H](O)CO` [D-glucose] + O gave a mass density ([3]; 293.15 K, w1 = 0.05) of 1016.28 ± 0.33 kg/m3, a mass density ([3]; 293.15 K, w1 = 0.1) of 1034.79 ± 0.34 kg/m3 and a mass density ([3]; 293.15 K, w1 = 0.15) of 1053.29 ± 0.37 kg/m3. It also gave a mass density ([3]; 293.15 K, w1 = 0.2) of 1072.41 ± 0.4 kg/m3, a viscosity ([3]; 298.15 K, w1 = 0.05) of 0.9767 ± 0.0091 mPa·s and a viscosity ([3]; 298.15 K, w1 = 0.1) of 1.12 ± 0.011 mPa·s. The viscosity ([3]; 298.15 K, w1 = 0.15) was 1.316 ± 0.013 mPa·s, the viscosity ([3]; 298.15 K, w1 = 0.2) was 1.67 ± 0.015 mPa·s and the mass density ([3]; 298.15 K, w1 = 0.05) was 1014.69 ± 0.34 kg/m3. It also gave a mass density ([3]; 298.15 K, w1 = 0.1) of 1033.15 ± 0.35 kg/m3, a mass density ([3]; 298.15 K, w1 = 0.15) of 1051.61 ± 0.36 kg/m3 and a mass density ([3]; 298.15 K, w1 = 0.2) of 1070.31 ± 0.41 kg/m3. For the same molecule, the viscosity ([3]; 303.15 K, w1 = 0.05) was 0.8605 ± 0.0081 mPa·s, the viscosity ([3]; 303.15 K, w1 = 0.1) was 0.9907 ± 0.0092 mPa·s and the viscosity ([3]; 303.15 K, w1 = 0.15) was 1.147 ± 0.011 mPa·s. For the same molecule, the viscosity ([3]; 303.15 K, w1 = 0.2) was 1.491 ± 0.013 mPa·s, the mass density ([3]; 303.15 K, w1 = 0.05) was 1013.08 ± 0.35 kg/m3 and the mass density ([3]; 303.15 K, w1 = 0.1) was 1031.5 ± 0.36 kg/m3. For the same molecule, the mass density ([3]; 303.15 K, w1 = 0.15) was 1049.92 ± 0.36 kg/m3, the mass density ([3]; 303.15 K, w1 = 0.2) was 1068.17 ± 0.42 kg/m3 and the viscosity ([3]; 308.15 K, w1 = 0.05) was 0.7697 ± 0.0072 mPa·s. It also gave a viscosity ([3]; 308.15 K, w1 = 0.1) of 0.8844 ± 0.0082 mPa·s, a viscosity ([3]; 308.15 K, w1 = 0.15) of 1.018 ± 0.0096 mPa·s and a viscosity ([3]; 308.15 K, w1 = 0.2) of 1.345 ± 0.012 mPa·s. The mass density ([3]; 308.15 K, w1 = 0.05) was 1011.47 ± 0.36 kg/m3, the mass density ([3]; 308.15 K, w1 = 0.1) was 1029.84 ± 0.37 kg/m3 and the mass density ([3]; 308.15 K, w1 = 0.15) was 1048.37 ± 0.37 kg/m3. The mass density ([3]; 308.15 K, w1 = 0.2) was 1065.97 ± 0.43 kg/m3, the viscosity ([3]; 313.15 K, w1 = 0.05) was 0.6945 ± 0.0065 mPa·s and the viscosity ([3]; 313.15 K, w1 = 0.1) was 0.7901 ± 0.0073 mPa·s. For the same molecule, the viscosity ([3]; 313.15 K, w1 = 0.15) was 0.8925 ± 0.0084 mPa·s, the viscosity ([3]; 313.15 K, w1 = 0.2) was 1.21 ± 0.011 mPa·s and the mass density ([3]; 313.15 K, w1 = 0.05) was 1009.85 ± 0.37 kg/m3. For the same molecule, the mass density ([3]; 313.15 K, w1 = 0.1) was 1028.17 ± 0.38 kg/m3, the mass density ([3]; 313.15 K, w1 = 0.15) was 1046.62 ± 0.39 kg/m3 and the mass density ([3]; 313.15 K, w1 = 0.2) was 1063.76 ± 0.44 kg/m3. For the same molecule, the viscosity ([3]; 318.15 K, w1 = 0.05) was 0.6334 ± 0.006 mPa·s, the viscosity ([3]; 318.15 K, w1 = 0.1) was 0.7223 ± 0.0066 mPa·s and the viscosity ([3]; 318.15 K, w1 = 0.15) was 0.8097 ± 0.0067 mPa·s. The viscosity ([3]; 318.15 K, w1 = 0.2) was 1.112 ± 0.0097 mPa·s, the mass density ([3]; 318.15 K, w1 = 0.1) was 1026.48 ± 0.38 kg/m3 and the mass density ([3]; 318.15 K, w1 = 0.15) was 1044.93 ± 0.45 kg/m3. For the same molecule, the mass density ([3]; 318.15 K, w1 = 0.2) was 1061.52 ± 0.45 kg/m3.
